Where two headings read alike, the source gives them in different places.
Legend:
MCR-4 = target: T1, MCR-4 (Homo sapiens, UniProt P32245); assay: Melanocortin receptor binding assay, competition with 125I-HP 467, HEK 293 cells expressing hMCR-4; conditions: for IC50: read-out: MC-4 IC50
T1 construct: expressed in transfected cells; host or cells: HEK 293
How it was run: (§1)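 Intact-cell competition binding, 2.5 hr at 37 °C, in PBS/10% calf serum/1 mM CaCl2; hMCR-4 cells at 4×10^3 per tube, hMCR-1 cells at 2×10^4 per tube. Filtration on BSA/CaCl2-soaked GF/B, cold 50 mM Tris pH 7.4 washes, scintillation count.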

MCR-1 = target: T2, MCR-1 (Homo sapiens, UniProt Q01726); assay: Melanocortin receptor binding assay, competition with 125I-HP 467, HEK 293 cells expressing hMCR-1; conditions: for IC50: read-out: MC-1 IC50; for % Disp. MC-1 10 μM: displacement of 125I-HP 467 at 10 μM isoquinoline compound
T2 construct: expressed in transfected cells; host or cells: HEK 293
T2 sequence (Q01726 whole entry): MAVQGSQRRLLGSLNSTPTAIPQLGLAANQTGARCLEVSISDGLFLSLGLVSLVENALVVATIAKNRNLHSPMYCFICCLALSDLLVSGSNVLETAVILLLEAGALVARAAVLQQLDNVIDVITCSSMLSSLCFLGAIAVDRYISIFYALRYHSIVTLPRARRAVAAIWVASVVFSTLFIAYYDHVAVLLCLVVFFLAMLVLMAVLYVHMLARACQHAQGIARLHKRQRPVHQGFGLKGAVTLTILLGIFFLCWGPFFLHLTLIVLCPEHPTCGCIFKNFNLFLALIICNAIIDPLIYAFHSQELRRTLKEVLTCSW
How it was run: as §1

[1] = inhibition of binding of 125I-HP 467, HEK 293 cells expressing MCR-4, TRG 2414 library
[2] = inhibition of binding of 125I-HP 467, HEK 293 cells expressing MCR-1, TRG 2414 library
[3] = competition with 125I-HP 467, HEK 293 cells expressing MCR-4
[4] = competition with 125I-HP 467, HEK 293 cells expressing MCR-1
[5] = TRG 2406 and TRG 2407 libraries, inhibition of binding of 125I-HP 467
[6] = inhibition of binding of 125I-HP 467, HEK 293 cells expressing MCR-4
[7] = inhibition of binding of 125I-HP 467, HEK 293 cells expressing MCR-1
[8] = TRG 2408 and TRG 2409 libraries, inhibition of 125I-HP 467 binding
[9] = TRG 2414 library, inhibition of binding of 125I-HP 467, HEK 293 cells expressing MCR-4
[10] = TRG 2414 library, inhibition of binding of 125I-HP 467, HEK 293 cells expressing MCR-1
[11] = TRG 2405 section, inhibition of binding of 125I-HP 467, HEK 293 cells expressing MCR-4
[12] = TRG 2405 section, inhibition of binding of 125I-HP 467, HEK 293 cells expressing MCR-1

T1 sequence (P32245 whole entry): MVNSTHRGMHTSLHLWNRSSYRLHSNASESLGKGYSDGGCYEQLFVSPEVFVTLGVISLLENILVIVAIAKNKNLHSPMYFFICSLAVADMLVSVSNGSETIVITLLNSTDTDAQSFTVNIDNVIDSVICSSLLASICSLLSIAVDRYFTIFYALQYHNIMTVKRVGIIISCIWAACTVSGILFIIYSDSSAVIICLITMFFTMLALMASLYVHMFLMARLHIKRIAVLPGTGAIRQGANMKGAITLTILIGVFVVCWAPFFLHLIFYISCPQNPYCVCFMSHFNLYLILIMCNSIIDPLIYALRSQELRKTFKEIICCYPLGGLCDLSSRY

## NCC(CCCCN1Cc2ccccc2C(CNCc2ccccc2)C1c1cc(C(F)(F)F)cc(C(F)(F)F)c1)NCCc1ccccc1 (stereo not shown) [TRG 2414-70]
MCR-4; [1]
  IC50: 9.29 µM
MCR-1; [2]
  IC50: 18.3 µM

## CNC(CN)CCCCN1Cc2ccccc2C(CNC2CCCCC2)C1c1ccc(NCC(C)C)cc1 (stereo not shown) [TRG 2409-16]
MCR-4; [3]
  IC50: 21 µM
MCR-1; [4]
  IC50: 0.95 µM

## CCNc1ccc(C2C(CNc3ccccc3Cl)c3ccccc3CN2CCCCC(CN)NC)cc1 (stereo not shown) [TRG 2407-43]
MCR-4; [5]
  IC50: 11.2 µM
MCR-1; [5]
  IC50: 7.07 µM

## CCNc1ccc(C2C(CNCCc3ccccc3)c3ccccc3CN2CCCC(CN)NCc2ccc(Cl)cc2)cc1 (stereo not shown) [TRG 2411-159]
MCR-4; [6]
  IC50: 0.35 µM
MCR-1; [7]
  IC50: 0.1 µM

## CCNc1ccc(C2C(CNCCc3ccccc3)c3ccccc3CN2CCCC(CN)NCCCCNCc2ccccc2)cc1 (stereo not shown) [TRG 2419-3]
MCR-4; [6]
  IC50: 2.15 µM
MCR-1; [7]
  IC50: 0.049 µM

## CCNc1ccc(C2C(CNC3CCCCC3)c3ccccc3CN2CCCCC(N)CN)cc1 (stereo not shown) [TRG 2408-5]
MCR-4; [8]
  IC50: 31.8 µM
MCR-1; [8]
  IC50: 1.66 µM

## Cc1ccc(CNC(CN)CCCCN2Cc3ccccc3C(CNCCc3ccc(Oc4ccccc4)cc3)C2c2cc(C(F)(F)F)cc(C(F)(F)F)c2)cc1 (stereo not shown) [TRG 2421-27]
MCR-4; [6]
  IC50: 9.26 µM
MCR-1; [7]
  IC50: 7.26 µM

## CCCCCc1ccc(C2C(CNCCc3ccccc3)c3ccccc3CN2CCCC(CN)NCc2ccccc2)cc1 (stereo not shown) [TRG 2412-30]
MCR-4; [6]
  IC50: 1.06 µM
MCR-1; [7]
  IC50: 0.62 µM

## CCCCNc1ccc(C2C(CNC3CCCCC3)c3ccccc3CN2CCCCC(CN)NCc2ccc(Cl)cc2)cc1 (stereo not shown) [TRG 2411-94]
MCR-4; [3]
  IC50: 1.71 µM
MCR-1; [4]
  IC50: 0.09 µM

## NCC(N)CCCCN1Cc2ccccc2C(CNC2CCCCC2)C1c1ccc(Cl)cc1Cl (stereo not shown) [TRG 2408-13]
MCR-4; [8]
  IC50: 1.58 µM
MCR-1; [8]
  IC50: 1.72 µM

## COc1ccc(CCNCC2c3ccccc3CN(CCCCC(N)CN)C2c2ccc(Oc3ccccc3)cc2)cc1 (stereo not shown) [Cmpd 274]
MCR-4; [9]
  MC-4 IC50: no fit
MCR-1; [10]
  MC-1 IC50: no fit

## CCNc1ccc(C2C(CNCCc3ccccc3)c3ccccc3CN2CCCC(CN)NCCCCCN(CC)CC)cc1 (stereo not shown) [TRG 2420-3]
MCR-4; [6]
  IC50: 8.23 µM
MCR-1; [7]
  IC50: 0.03 µM

## COc1ccc(CCNCC2c3ccccc3CN(CCCCC(CN)NCC(C)c3ccc(CC(C)C)cc3)C2c2ccccc2Br)cc1 (stereo not shown) [Cmpd 228]
MCR-4; [9]
  IC50: 8.79 µM
MCR-1; [10]
  IC50: 17.7 µM

## NCC(N)CCN1Cc2ccccc2C(CNC2CCCCC2)C1c1ccc(-c2ccccc2)cc1 (mixture of isomers) [TRG 2408-111]
MCR-4; [8]
  IC50: 12 µM
MCR-1; [8]
  IC50: 7.52 µM

## CCNc1ccc(C2C(CNC3CCCCC3)c3ccccc3CN2CCC(CN)NCCc2ccccc2)cc1 (stereo not shown) [TRG 2408-92]
MCR-4; [8]
  IC50: 1.54 µM
MCR-1; [8]
  IC50: 4.51 µM

## CNC(CN)CCN1Cc2ccccc2C(CNC2CCCCC2)C1c1ccc(-c2ccccc2)cc1 (stereo not shown) [TRG 2408-110]
MCR-4; [8]
  IC50: 9.01 µM
MCR-1; [8]
  IC50: 5.37 µM

## CCNc1ccc(C2C(CNC3CCCCC3)c3ccccc3CN2CCCCC(CN)NCCNC)cc1 (stereo not shown) [TRG 2408-34]
MCR-4; [8]
  IC50: 33.6 µM
MCR-1; [8]
  IC50: 2.14 µM

## NCC(N)CCCCN1Cc2ccccc2C(CNCCc2cccc(Cl)c2)C1c1cc(C(F)(F)F)cc(C(F)(F)F)c1 (stereo not shown) [TRG 2414-53]
MCR-4; [1]
  IC50: 0.64 µM
MCR-1; [2]
  IC50: 9.78 µM

## COc1ccc(CCNCC2c3ccccc3CN(CCCCC(CN)NCc3ccc(-c4ccccc4)cc3)C2c2cc(C(F)(F)F)cc(C(F)(F)F)c2)cc1 (stereo not shown) [TRG 2421-15]
MCR-4; [6]
  IC50: 7.6 µM
MCR-1; [7]
  IC50: 7.81 µM

## NCC(CCCCN1Cc2ccccc2C(CNC2CCCCCC2)C1c1cc(C(F)(F)F)cc(C(F)(F)F)c1)NCc1ccccc1 (stereo not shown) [TRG 2414-75]
MCR-4; [1]
  IC50: 3.24 µM
MCR-1; [2]
  IC50: 1.92 µM

## CNC(CN)CCCCN1Cc2ccccc2C(CNCC2CCCCC2)C1c1ccc(Cl)cc1Cl (mixture of isomers) [TRG 2407-31]
MCR-4; [5]
  IC50: 1.02 µM
MCR-1; [5]
  IC50: 1.11 µM

## CCCOc1ccc(C2C(CNCc3ccccc3C(F)(F)F)c3ccccc3CN2CCCCC(CN)NCc2ccccc2)cc1 (stereo not shown) [TRG 2414-163]
MCR-4; [1]
  IC50: 22.6 µM
MCR-1; [2]
  IC50: 2.73 µM

## CCNc1ccc(C2C(CNCCc3ccccc3)c3ccccc3CN2CCCC(CN)NCc2ccccc2CN(CC)CC)cc1 (stereo not shown) [TRG 2420-15]
MCR-4; [6]
  IC50: 1.37 µM
MCR-1; [7]
  IC50: 0.07 µM

## CCc1ccc(C2C(CN)c3ccccc3CN2CCCC(CN)NCCC2CCCCC2)cc1 (stereo not shown) [TRG 2415-13]
MCR-4; [6]
  IC50: 0.87 µM
MCR-1; [7]
  IC50: 1.83 µM

## CC(C)Cc1ccc(C(C)CNC(CN)CCCCN2Cc3ccccc3C(CNCc3ccccc3C(F)(F)F)C2c2cc(C(F)(F)F)cc(C(F)(F)F)c2)cc1 (stereo not shown) [TRG 2414-44]
MCR-4; [1]
  MC-4 IC50: no fit
MCR-1; [2]
  MC-1 IC50: no fit

## CCNc1ccc(C2C(CNCCc3ccccc3)c3ccccc3CN2CCCC(CN)NCc2ccccc2)cc1 (stereo not shown) [TRG 2411-158]
MCR-4; [6]
  IC50: 0.41 µM
MCR-1; [7]
  IC50: 0.1 µM

## COc1ccc(CCNCC2c3ccccc3CN(CCCCC(CN)NCc3ccc(OC)cc3)C2c2cc(C(F)(F)F)cc(C(F)(F)F)c2)cc1 (stereo not shown) [TRG 2421-14]
MCR-4; [6]
  IC50: 1.69 µM
MCR-1; [7]
  IC50: 3.47 µM

## CNC(CN)CCCCN1Cc2ccccc2C(CNCc2ccccc2Cl)C1c1ccc(Cl)cc1Cl (stereo not shown) [TRG 2407-12]
MCR-4; [5]
  IC50: 3.23 µM
MCR-1; [5]
  IC50: 2.7 µM

## CCCCNc1ccc(C2C(CNC3CCCCC3)c3ccccc3CN2CCCC(CN)NCc2ccc(OC)cc2)cc1 (stereo not shown) [TRG 2411-212]
MCR-4; [6]
  IC50: 1.93 µM
MCR-1; [7]
  IC50: 0.1 µM

## CCCCCc1ccc(C2C(CO)c3ccccc3CN2CCCC(CN)NCCC2CCCCC2)cc1 (stereo not shown) [TRG 2415-8]
MCR-4; [6]
  IC50: 13.8 µM
MCR-1; [7]
  IC50: 6.21 µM

## CCNc1ccc(C2C(CNCCc3ccccc3)c3ccccc3CN2CCC[C@@H](CN)NCCOCCN(CC)CC)cc1 (stereo partly shown) [TRG 2420-11]
MCR-4; [6]
  IC50: 4.63 µM
MCR-1; [7]
  IC50: 0.028 µM

## CCCOc1ccc(C2C(CNCc3ccccc3)c3ccccc3CN2CCCCC(CN)NCCc2ccccc2)cc1 (stereo not shown) [Cmpd 190]
MCR-4; [9]
  IC50: 5.42 µM
MCR-1; [10]
  IC50: 1.44 µM

## NCC(CCCCN1Cc2ccccc2C(CNCCc2cccc(Cl)c2)C1c1ccccc1Br)NCc1ccccc1 (stereo not shown) [Cmpd 215]
MCR-4; [9]
  IC50: 6.43 µM
MCR-1; [10]
  IC50: 8.51 µM

## CNC(CN)CN1Cc2ccccc2C(CNC2CCCCC2)C1c1cccc(Oc2ccc(OC)cc2)c1 (stereo not shown) [TRG 2405-124]
MCR-4; [11]
  IC50: 3.1 µM
MCR-1; [12]
  IC50: 5.16 µM
MCR-1; first of duplicate
  % Disp. MC-1 10 μM: 65.2%
MCR-1; second of duplicate
  % Disp. MC-1 10 μM: 63%

## NCC(CCCCN1Cc2ccccc2C(CNCCc2cccc(Cl)c2)C1c1cccc(Oc2ccccc2)c1)NCc1ccccc1 (stereo not shown) [TRG 2414-95]
MCR-4; [1]
  IC50: 5.26 µM
MCR-1; [2]
  IC50: 8.66 µM

## CCCOc1ccc(C2C(CNC3CCCCCC3)c3ccccc3CN2CCCCC(CN)NCc2ccccc2)cc1 (stereo not shown) [Cmpd 195]
MCR-4; [9]
  IC50: 4.07 µM
MCR-1; [10]
  IC50: 1.38 µM

## CCCOc1ccc(C2C(CNCc3ccccc3)c3ccccc3CN2CCCCC(N)CN)cc1 (stereo not shown) [Cmpd 189]
MCR-4; [9]
  IC50: 2.31 µM
MCR-1; [10]
  IC50: 0.869 µM

## CNC(CN)CN1Cc2ccccc2C(CNC2CCCCC2)C1c1cccn1C (mixture of isomers) [TRG 2405-94]
MCR-4; [11]
  IC50: 10.5 µM
MCR-1; [12]
  IC50: 2.11 µM
MCR-1; first of duplicate
  % Disp. MC-1 10 μM: 68.9%
MCR-1; second of duplicate
  % Disp. MC-1 10 μM: 72%

## CC(C)Cc1ccc(C(C)CNC(CN)CCCCN2Cc3ccccc3C(CNCc3ccccc3)C2c2ccccc2Br)cc1 (stereo not shown) [Cmpd 232]
MCR-4; [9]
  IC50: 23.4 µM
MCR-1; [10]
  IC50: 32.7 µM

## COc1cccc(CNCC2c3ccccc3CN(CCCCC(N)CN)C2c2ccc(Cl)cc2Cl)c1 (stereo not shown) [TRG 2414-17]
MCR-4; [1]
  IC50: 1.63 µM
MCR-1; [2]
  IC50: 3.08 µM

## CCCCNC(CN)CCCCN1Cc2ccccc2C(CN)C1c1ccc(-c2ccccc2)cc1 (stereo not shown) [TRG 2411-33]
MCR-4; [3]
  IC50: 1.73 µM
MCR-1; [4]
  IC50: 0.39 µM

## CCCOc1ccc(C2C(CNCc3ccc(OC)cc3)c3ccccc3CN2CCCCC(CN)NCCc2ccccc2)cc1 (stereo not shown) [TRG 2414-182]
MCR-4; [1]
  IC50: 4.11 µM
MCR-1; [2]
  IC50: 1.48 µM

Reference: patent US6608082B1, “Treatment of erectile dysfunction using isoquinoline compound melanocortin receptor ligands” (Lion Bioscience AG, priority 1998, dated 2003)
